Our source for the IC50 values is US9708308B2, “Factor IXa inhibitors” (Merck Sharp & Dohme Corp., priority 2012, dated 2017).

The term IC50 denotes the concentration that gives 50% inhibition.

For the assay, the target named is Factor IXa (Homo sapiens, UniProt P00740). The assay can be described thus: Determination of inhibitory activity against Factor IXa (cleavage of fluorescent peptide substrate). Conditions: cleavage of fluorescent peptide CH3SO2-D-CHG-Gly-Arg-AFC, release of AFC; read-out: FIXa IC50. In kind it is biochemical. An excerpt: • (R)—N-(3-aminobenzo[d]isoxazol-6-yl)-2-hydroxy-2-((R)-4-(1-(6-methoxypyridazin-4-yl)-1H-pyrazol-3-yl)-6,6-dimethyl-3-oxomorpholin-2-yl)acetamide. Determination of Inhibitory Activity Against Factor IXa
Sequence of Factor IXa (P00740 227-461 limits assumed): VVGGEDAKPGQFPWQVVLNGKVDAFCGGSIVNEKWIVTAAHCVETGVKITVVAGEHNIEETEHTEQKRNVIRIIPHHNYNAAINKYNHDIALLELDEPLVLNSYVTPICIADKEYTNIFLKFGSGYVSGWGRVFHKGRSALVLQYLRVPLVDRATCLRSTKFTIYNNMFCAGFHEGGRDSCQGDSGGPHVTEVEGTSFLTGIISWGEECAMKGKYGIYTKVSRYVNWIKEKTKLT
Sequence of Factor IXa (P00740 47-191 partner limits assumed): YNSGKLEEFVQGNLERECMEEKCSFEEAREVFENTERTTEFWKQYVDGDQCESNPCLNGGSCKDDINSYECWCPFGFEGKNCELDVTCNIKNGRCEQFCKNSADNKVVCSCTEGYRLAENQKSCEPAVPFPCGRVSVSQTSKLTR
Formation of a clot to stem bleeding at a site of blood vessel injury involves the coordinated activity of a group of plasma proteins that initiate and propagate fibrin formation and subsequently protect fibrin from premature degradation. Factor IX is a key component of the plasma system that forms a fibrin clot at a site of vascular injury. The activity of Factor IXa is measured by monitoring the cleavage of the fluorescent peptide, CH3SO2-D-CHG-Gly-Arg-AFC.AcOH (“CHG” is cyclohexyl-glycine and “AFC” is trifluoro aminomethyl coumarin). Factor IXa cleaves the amide bond between Arg and AFC, thereby releasing the AFC fluorophore. The free AFC can be detected with a fluorescence detector at an excitation wavelength of 405 nm and emission wavelength of 510 nm.
In the case of `COc1cc(-n2ccc(N3CCO[C@H]([C@@](C)(O)C(=O)Nc4ccc5c(N)noc5c4)C3=O)n2)ncn1` [Example 56, (R)—N-(3-aminobenzo[d]isoxazol-6-yl)-2-hydroxy-2-((R)-4-(1-(6-methoxypyrimidin-4-yl)-1H-pyrazol-3-yl)-3-oxomorpholin-2-yl)propanamide], the IC50 was 84.5 nM.

Turning to `C[C@](O)(C(=O)Nc1ccc2c(N)noc2c1)[C@H]1OCCN(c2nn(-c3ccnc(C(F)(F)F)n3)cc2F)C1=O` [Example 57, (R)—N-(3-aminobenzo[d]isoxazol-6-yl)-2-((R)-4-(4-fluoro-1-(2-(trifluoromethyl)pyrimidin-4-yl)-1H-pyrazol-3-yl)-3-oxomorpholin-2-yl)-2-hydroxypropanamide], the IC50 amounted to 63.7 nM.

As for `COc1nccc(-n2cc(F)c(N3CCO[C@H]([C@@](C)(O)C(=O)Nc4ccc5c(N)noc5c4)C3=O)n2)n1` [Example 58, (R)—N-(3-aminobenzo[d]isoxazol-6-yl)-2-((R)-4-(4-fluoro-1-(2-methoxypyrimidin-4-yl)-1H-pyrazol-3-yl)-3-oxomorpholin-2-yl)-2-hydroxypropanamide], the IC50 is 32 nM.

With `Cc1cc(N2CCO[C@H]([C@@](C)(O)C(=O)Nc3ccc4c(N)noc4c3)C2=O)nn1-c1ccnc(C(F)(F)F)n1` [Example 59, (R)—N-(3-aminobenzo[d]isoxazol-6-yl)-2-hydroxy-2-((R)-4-(5-methyl-1-(2-(trifluoromethyl)pyrimidin-4-yl)-1H-pyrazol-3-yl)-3-oxomorpholin-2-yl)propanamide], the IC50 is 72.8 nM.

`C[C@](O)(C(=O)Nc1ccc2c(N)noc2c1)[C@H]1OCCN(c2ccc(-c3ccnc(C#N)c3)o2)C1=O` [Example 61, (R)—N-(3-aminobenzo[d]isoxazol-6-yl)-2-((R)-4-(5-(2-cyanopyridin-4-yl)furan-2-yl)-3-oxomorpholin-2-yl)-2-hydroxypropanamide]: the half-inhibitory concentration (IC50) is 93 nM.

Take `C[C@](O)(C(=O)Nc1ccc2c(N)noc2c1)[C@H]1OCCN(c2ccc(-c3ccnc(C(F)(F)F)c3)o2)C1=O` [Example 62, (R)—N-(3-aminobenzo[d]isoxazol-6-yl)-2-hydroxy-2-((R)-3-oxo-4-(5-(2-(trifluoromethyl)pyridin-4-yl)furan-2-yl)morpholin-2-yl)propanamide]: the IC50 came to 43.5 nM.

Take `COc1cc(-c2ccc(N3CCO[C@H]([C@@](C)(O)C(=O)Nc4ccc5c(N)noc5c4)C3=O)o2)ccn1` [Example 63, (R)—N-(3-aminobenzo[d]isoxazol-6-yl)-2-hydroxy-2-((R)-4-(5-(2-methoxypyridin-4-yl)furan-2-yl)-3-oxomorpholin-2-yl)propanamide]: the half-inhibitory concentration (IC50) is 131 nM.

As for `COc1nccc(-c2ccc(N3CCO[C@H]([C@@](C)(O)C(=O)Nc4ccc5c(N)noc5c4)C3=O)o2)n1` [Example 64, (R)—N-(3-aminobenzo[d]isoxazol-6-yl)-2-hydroxy-2-((R)-4-(5-(2-methoxypyrimidin-4-yl)furan-2-yl)-3-oxomorpholin-2-yl)propanamide], the IC50 is 124 nM.

With `CC(C)(O)c1cccc(N2CCO[C@H]([C@@](C)(O)C(=O)Nc3ccc4c(N)noc4c3)C2=O)n1` [Example 65, (R)—N-(3-aminobenzo[d]isoxazol-6-yl)-2-hydroxy-2-((R)-4-(6-(2-hydroxypropan-2-yl)pyridin-2-yl)-3-oxomorpholin-2-yl)propanamide], the IC50 is 468 nM.

As for `C[C@](O)(C(=O)Nc1ccc2c(N)noc2c1)[C@H]1OCCN(c2cccc(-c3ccnnc3)n2)C1=O` [Example 67, (R)—N-(3-aminobenzo[d]isoxazol-6-yl)-2-hydroxy-2-((R)-3-oxo-4-(6-(pyridazin-4-yl)pyridin-2-yl)morpholin-2-yl)propanamide], the IC50 is 66.9 nM.

Turning to `C[C@](O)(C(=O)Nc1ccc2c(N)noc2c1)[C@H]1OCCN(c2ccc3cc(C(F)(F)F)ccc3n2)C1=O` [Example 68, (R)—N-(3-aminobenzo[d]isoxazol-6-yl)-2-hydroxy-2-((R)-3-oxo-4-(6-(trifluoromethyl)quinolin-2-yl)morpholin-2-yl)propanamide], the IC50 amounted to 574 nM.

`C[C@](O)(C(=O)Nc1ccc2c(N)noc2c1)[C@H]1OCCN(c2ccc3ccncc3n2)C1=O` [Example 69, (R)-2-((R)-4-(1,7-naphthyridin-2-yl)-3-oxomorpholin-2-yl)-N-(3-aminobenzo[d]isoxazol-6-yl)-2-hydroxypropanamide]: the IC50 came out at 384 nM.

In the case of `Cc1nn(C)c2nc(N3CCO[C@H]([C@@](C)(O)C(=O)Nc4ccc5c(N)noc5c4)C3=O)ccc12` [Example 70, (R)—N-(3-aminobenzo[d]isoxazol-6-yl)-2-((R)-4-(1,3-dimethyl-1H-pyrazolo[3,4-b]pyridin-6-yl)-3-oxomorpholin-2-yl)-2-hydroxypropanamide], the concentration for half-maximal inhibition (IC50) amounted to 195 nM.

On to `C[C@](O)(C(=O)Nc1ccc2c(N)noc2c1)[C@H]1OCCN(c2cc3n(n2)CCC3)C1=O` [Example 71, (R)—N-(3-aminobenzo[d]isoxazol-6-yl)-2-((R)-4-(5,6-dihydro-4H-pyrrolo[1,2-b]pyrazol-2-yl)-3-oxomorpholin-2-yl)-2-hydroxypropanamide], for which the IC50 came to 368 nM.

With `C[C@]1([C@@H](O)C(=O)Nc2ccc3c(N)noc3c2)OCCN(c2cccc(C(F)(F)F)n2)C1=O` [Example 72, (R)—N-(3-Aminobenzo[d]isoxazol-6-yl)-2-hydroxy-2-((R)-2-methyl-3-oxo-4-(6-(trifluoromethyl)pyridin-2-yl)morpholin-2-yl)acetamide], the IC50 is 12.9 nM.

With `C[C@]1([C@@H](O)C(=O)Nc2ccc3c(N)noc3c2)OCCN(c2ccn(-c3ccnc(C#N)c3)n2)C1=O` [Example 73, (R)—N-(3-Aminobenzo[d]isoxazol-6-yl)-2-((R)-4-(1-(2-cyanopyridin-4-yl)-1H-pyrazol-3-yl)-2-methyl-3-oxomorpholin-2-yl)-2-hydroxyacetamide], the concentration for half-maximal inhibition (IC50) stood at 66.1 nM.

With `CC[C@]1([C@@H](O)C(=O)Nc2ccc3c(N)noc3c2)OCCN(c2cccc(C(F)(F)F)n2)C1=O` [Example 74, (R)—N-(3-Aminobenzo[d]isoxazol-6-yl)-2-((R)-2-ethyl-3-oxo-4-(6-(trifluoromethyl)pyridin-2-yl)morpholin-2-yl)-2-hydroxyacetamide], the IC50 came to 408 nM.

As to `C[C@]1([C@@H](O)C(=O)Nc2ccc3c(N)noc3c2)OCCN(c2ccn(-c3ccc(=O)n(C(F)F)c3)n2)C1=O` [Example 76, (R)—N-(3-Aminobenzo[d]isoxazol-6-yl)-2-((R)-4-(1-(1-(difluoromethyl)-6-oxo-1,6-dihydropyridin-3-yl)-1H-pyrazol-3-yl)-2-methyl-3-oxomorpholin-2-yl)-2-hydroxyacetamide], the 50% inhibitory concentration (IC50) stood at 11.1 nM.

Take `Cc1cc(N2CCO[C@](C)([C@@H](O)C(=O)Nc3ccc4c(N)noc4c3)C2=O)nn1-c1ccc(=O)n(C(F)F)c1` [Example 77, (R)—N-(3-Aminobenzo[d]isoxazol-6-yl)-2-((R)-4-(1-(1-(difluoromethyl)-6-oxo-1,6-dihydropyridin-3-yl)-5-methyl-1H-pyrazol-3-yl)-2-methyl-3-oxomorpholin-2-yl)-2-hydroxyacetamide]: the IC50 came to 26.5 nM.

With `C[C@]1([C@@H](O)C(=O)Nc2ccc3c(N)noc3c2)OCCN(c2nn(-c3ccc(=O)n(C(F)F)c3)cc2F)C1=O` [Example 78, (R)—N-(3-Aminobenzo[d]isoxazol-6-yl)-2-((R)-4-(1-(1-(difluoromethyl)-6-oxo-1,6-dihydropyridin-3-yl)-4-fluoro-1H-pyrazol-3-yl)-2-methyl-3-oxomorpholin-2-yl)-2-hydroxyacetamide], the IC50 came out at 25.6 nM.

Take `C[C@]1([C@@H](O)C(=O)Nc2ccc3c(N)noc3c2)OCCN(c2ccn(-c3ccc(F)cc3)n2)C1=O` [Example 79, (R)—N-(3-aminobenzo[d]isoxazol-6-yl)-2-((R)-4-(1-(4-fluorophenyl)-1H-pyrazol-3-yl)-2-methyl-3-oxomorpholin-2-yl)-2-hydroxyacetamide]: the half-maximal inhibitory concentration (IC50) came to 170 nM.

In the case of `C[C@]1([C@@H](O)C(=O)Nc2ccc3c(N)noc3c2)OCCN(c2ccn(-c3ccc(C#N)cc3)n2)C1=O` [Example 80, (R)—N-(3-aminobenzo[d]isoxazol-6-yl)-2-((R)-4-(1-(4-cyanophenyl)-1H-pyrazol-3-yl)-2-methyl-3-oxomorpholin-2-yl)-2-hydroxyacetamide], the IC50 came out at 25.3 nM.

Take `COC(=O)c1ccc(-n2ccc(N3CCO[C@](C)([C@@H](O)C(=O)Nc4ccc5c(N)noc5c4)C3=O)n2)cc1` [Example 81, methyl 4-(3-((R)-2-((R)-2-((3-aminobenzo[d]isoxazol-6-yl)amino)-1-hydroxy-2-oxoethyl)-2-methyl-3-oxomorpholino)-1H-pyrazol-1-yl)benzoate]: the 50% inhibitory concentration (IC50) came out at 418 nM.

`C[C@]1([C@@H](O)C(=O)Nc2ccc3c(N)noc3c2)OCCN(c2ccn(-c3ccc(C(=O)O)cc3)n2)C1=O` [Example 82, 4-(3-((R)-2-((R)-2-((3-aminobenzo[d]isoxazol-6-yl)amino)-1-hydroxy-2-oxoethyl)-2-methyl-3-oxomorpholino)-1H-pyrazol-1-yl)benzoic acid]: the 50% inhibitory concentration (IC50) was 32.8 nM.

As for `C[C@]1([C@@H](O)C(=O)Nc2ccc3c(N)noc3c2)OCCN(c2ccn(-c3ccc(Cl)cc3)n2)C1=O` [Example 83, (R)—N-(3-aminobenzo[d]isoxazol-6-yl)-2-((R)-4-(1-(4-chlorophenyl)-1H-pyrazol-3-yl)-2-methyl-3-oxomorpholin-2-yl)-2-hydroxyacetamide], the 50% inhibitory concentration (IC50) is 352 nM.
